# Laboratory results taken from US11339189B2, “DNA primase and gyrase inhibitors” (B. G. NEGEV TECHNOLOGIES AND APPLICATIONS LTD., AT …, priority 2016, dated 2022).
# pIC50: −log10 of the molar value.
# Assays:
# T7 DNA primase [1] = target: T1, T7 DNA primase (Escherichia phage T7, UniProt P03692); assay: Fragment based screening by STD NMR spectroscopy; type: binding, bacteriophage T7; conditions: ranked by total change in intensity and number of affected peaks; Maybridge Ro3 library
# T1 construct: T7 primase domain (residue: 1-271) was over-produced and purified using metal free buffers; made in house; host or cells: E. coli Bl21(DE3) containing pETg4P
# T1 sequence (P03692 1-271): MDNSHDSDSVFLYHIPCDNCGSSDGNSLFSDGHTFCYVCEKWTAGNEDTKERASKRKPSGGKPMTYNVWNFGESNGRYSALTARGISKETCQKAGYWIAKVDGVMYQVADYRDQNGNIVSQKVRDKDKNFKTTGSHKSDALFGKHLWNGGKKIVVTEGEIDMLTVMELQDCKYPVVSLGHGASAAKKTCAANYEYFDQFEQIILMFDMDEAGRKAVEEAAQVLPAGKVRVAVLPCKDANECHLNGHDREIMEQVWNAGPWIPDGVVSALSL
# Protocol: NMR experiments—Fragment Based Screening: T7 primase was screened against the Maybridge Ro3 Diversity Fragment Library containing 1000 compounds using STD spectroscopy. Samples for 1D ligand-observed NMR studies contained […] T7 primase in 50 mM phosphate buffer in D2O and 10 compounds, resulting in a total of 100 samples. NMR spectra were recorded on a Bruker Avance 500 MHz equipped with a TXO cryoprobe with Z gradient and a NMR-CASE sample changer at 298 K. Ligand binding was probed using a saturation transfer difference pulse program. Saturation was achieved using on-resonance irradiation at 0 ppm with a train of Wurst pulses for a total saturation time of 1.5 s. Off resonance irradiation was centered at 40 ppm. Spectra were acquired with a sweep width of 8012.8 Hz, 8192 data points and 224 scans. Active compounds were identified by comparing the STD spectra with the corresponding reference spectra using the MestreNova software. Any compound with reduced peak intensities was considered a hit and ranked according to the percentage of intensity decrease and the number of affected peaks per compound.
# Using the Maybridge Ro3 fragment library containing 1000 fragments, 100 NMR samples were prepared, each containing a mixture of 10 fragments and 50 μM T7 primase.
# The 10 fragments were chosen to show minimal overlap of their 1H chemical shift to allow easy identification of the shifts. […]
# [2] = target: T2, T7 DNA primase (primase domain of bacteriophage T7 gene 4 protein, residues 1-271) (Escherichia phage T7, UniProt P03692); assay: Oligoribonucleotide synthesis assay: template-directed diribonucleotide (pppAC) synthesis catalyzed by the T7 DNA primase domain (FIG. 5); type: biochemical; conditions: T7 gene 4 primase domain (residues 1-271, expressed in E. coli BL21(DE3)); DNA template with recognition site 5'-GTC-3' (5'-GGGTCA10-3'), ATP, [α-32P]-CTP, 10 mM MnCl2, pH 7.5; gel autoradiography of pppAC; four parameter logistic fit; parenthesised figure not explained
# T2 construct: T7 primase domain (residue: 1-271) was over-produced and purified; made in house; host or cells: E. coli BL21(DE3), plasmid pETg4P
# T2 sequence (P03692 1-271): as above
# Description: FIGS. 5A-C present a scheme summarizing the assay in which the DNA template containing the primase recognition site 5′-GTCA10-3′ enables the synthesis of only diribonucleotides pppAC (FIG. 5A), and gel bands and quantification of gel bands representing the reaction products (5′-pppAC-3′) (FIG. 5B and FIG. 5C, respectively).
# Protein expression and purification: Proteins and Reagents. All chemical reagents were of molecular biology grade (Sigma); ATP and CTP (Roche Molecular Biochemicals). dNTPs and ddNTPs were purchased from USB Corp. Premade gels (10-20% linear gradients) used for SDS-PAGE and Precision Plus Protein prestained standards were purchased from BioRad (Hercules, Calif.). T7 primase domain (residue: 1-271) was over-produced and purified using metal free buffers as previously described in Mol Cell 11, 1349-60 (2003). T7 gp5 and E. Coli trx were overproduced and purified as described in J. Biol. Chem. 262, 16224-32 (1987). Gp4 was overproduced and purified as described in J. Biol. Chem. 272, 18425-33 (1997). M13 ssDNA was prepared as described in J. Biol. Chem. 261, 15208-16 (1986). [α-^32P]-CTP (800 Ci/mmol) was purchased from Perkin Elmer.
# (§1) Oligoribonucleotide Synthesis Assay: Oligoribonucleotides were synthesized by DNA primase, product was measured as described in J Biol Chem 272, 5943-51 (1997) and in J Biol Chem 266, 23240-50 (1991), in reactions containing various concentrations (1.1, 3.3, and 10 μM) of gene 4 primase domain. […]
# (§2) Small molecules that inhibit primase activity: to catalyze the synthesis of short RNA primers, T7 primase requires DNA with a primase recognition site, ATP and CTP, and a buffer containing divalent metal ions. […] The radioactively labeled oligoribonucleotides were separated on a denaturing polyacrylamide gel, and radioactivity was measured on an autoradiogram. The amounts of RNA-primed DNA syntheses were determined by measuring the incorporation of dTMP (see Methods). […]
# T7 DNA primase [3] = target: T1, T7 DNA primase; assay: [1H,15N]-TROSY HSQC titration of labeled primase with compounds; type: binding, bacteriophage T7; conditions: compared to free T7 primase
# Protocol: [^1H,^15N]-TROSY HSQC titration spectra of 15N,D T7 DNA primase with selected fragment molecules and compounds 1, 12, 13, 15, 17, ATP, and DNA were recorded at 25° C. on a Bruker DMX 800 MHz spectrometer equipped with TXI cryoprobes with Z gradient. Data were processed and analyzed using NMRPipe (Journal of Biomolecular NMR 6, 277-293 (1995)) and NMRView (Journal of Biomolecular Nmr 4, 603-614 (1994)).
# Structural analysis of inhibitor-primase interactions: To characterize the binding of the compounds identified using FBVS, the [^15N, ^1H]-TROSY-HSQC spectra of ^15N- and D-labeled T7 primase in the presence of the selected lead compounds (FIGS. 7A-B) were measured. […] Relative to the initial scaffold alone, those shifts were more pronounced, which indicates stronger binding interactions. In addition, chemical shift perturbations upon the addition of DNA and ATP/CTP to the T7 primase domain confirmed that all three compounds bind to the active site. […] Compounds 12 and 15, whose polar dissolution values were the lowest from among the five inhibitors, were not able to achieve the concentrations needed for the protein-NMR experiments.
# [4] = target: T3, T7 primase (gp4) with gp5/trx (Escherichia phage T7, UniProt P03692); assay: Primase dependent DNA synthesis (gp4 primers extended by gp5/trx on M13 ssDNA); type: biochemical, bacteriophage T7; conditions: 350 μM of each small molecule, FIG. 4B
# T3 construct: the helicase-primase (gene product 4, gp4, full-length) was run; made in house
# T3 sequence (P03692 whole entry): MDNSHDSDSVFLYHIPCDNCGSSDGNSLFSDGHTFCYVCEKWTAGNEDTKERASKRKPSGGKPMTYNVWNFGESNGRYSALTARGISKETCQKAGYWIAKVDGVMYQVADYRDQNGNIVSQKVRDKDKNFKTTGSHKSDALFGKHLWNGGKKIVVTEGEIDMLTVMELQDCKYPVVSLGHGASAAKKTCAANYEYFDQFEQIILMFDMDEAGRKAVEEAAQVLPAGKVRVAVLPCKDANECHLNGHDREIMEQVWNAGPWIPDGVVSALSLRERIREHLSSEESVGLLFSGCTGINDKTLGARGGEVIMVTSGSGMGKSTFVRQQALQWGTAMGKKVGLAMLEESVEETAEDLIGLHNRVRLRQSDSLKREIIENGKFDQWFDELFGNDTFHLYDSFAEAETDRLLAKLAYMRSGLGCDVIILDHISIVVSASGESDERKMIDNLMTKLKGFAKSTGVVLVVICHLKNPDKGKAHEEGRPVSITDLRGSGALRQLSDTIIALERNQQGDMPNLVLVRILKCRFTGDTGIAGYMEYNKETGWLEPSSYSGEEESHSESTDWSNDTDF
# Protocol: Primase dependent DNA synthesis: RNA primers made by gp4A were extended by gp5/trx. The reaction mixture contained 10 nM M13 ssDNA, 0.3 mM dNTPs, 0.1 μCi [α-^32P] dCTP, 20 nM gp5/trx, 200 nM monomeric gp4A, and 350 μM of each compound. The reaction was incubated for 45 min at 37° C. Reaction was terminated and amount of DNA synthesis was determined as described in DNA polymerase assay.
# Small molecules that inhibit the concerted activity of primase and DNA polymerase: To evaluate the ability of the small molecule candidates to inhibit the primase-dependent replication of the lagging strand of bacteriophage DNA, an overall assay that involved the concerted activity of DNA polymerase (gene product 5 and E. coli thioredoxin, gp5/trx) and the helicase-primase (gene product 4, gp4, full-length) was run. In bacteriophage T7, lagging strand DNA synthesis involves interactions between gp5/trx and gp4. Full-length gp4 is required for the synthesis of oligoribonucleotides to initiate the synthesis of Okazaki fragments.
# To examine the effect of 350 μM of each small molecule on the synthesis of primers and their transfer to gp5/trx, M13 ssDNA for the synthesis of oligoribonucleotides by the primase and their extension by gp5/trx was used (FIG. 4b, inset). To initiate DNA synthesis, the primase must first synthesize tetraribonucleotides on the DNA and then transfer them to gp5/trx. In addition to the four dNTPs, ATP and CTP were also provided, and the primers that were synthesized included pppACCC, pppACAC, and pppACCA.
# The Table in FIG. 6A presents the inhibitory effect of various small molecules on primase-dependent DNA synthesis mediated by gp5/trx and gene 4 helicase (gp4A). The standard reaction contained the ssM13 DNA template (10 nM), 0.3 mM dATP, dGTP, dCTP and [α-^32P] dTTP (0.1 mCi), 10 nM gp5/trx, 200 nM monomeric concentrations of […] and 250 μM of small molecule inhibitors. After incubation for 30 min at 37° C., the level of […] was determined based on the amount of [α-^32P] dTTP incorporated into DNA.
# [5] = Polar dissolution of inhibitors for protein-NMR experiments; type: physicochemical; conditions: among the five inhibitors
# T7 primase domain = target: T4, T7 primase domain (Escherichia phage T7, UniProt P03692); assay: Oligoribonucleotide (pppAC diribonucleotide) synthesis assay; type: biochemical, bacteriophage T7; conditions: pppAC synthesis by T7 primase domain; four parameter logistic fit
# T4 construct: T7 primase domain (residue: 1-271) was over-produced and purified using metal free buffers; made in house; host or cells: E. coli Bl21(DE3) containing pETg4P
# T4 sequence (P03692 1-271): as the sequence (P03692 1-271) above
# Protocol: as §1, with “domain. Standard 10 μL reaction contained 5 μM of DNA template (5′-GGGTCA10-3′), 200 μM ATP, 200 μM [α-^32P]-CTP, and primase domain in a buffer containing 40 mM Tris-HCl (pH 7.5), 10 mM MnCl2, 10 mM DTT, and 50 mM potassium glutamate.” for “domain.”
# as §2
# The reaction conditions involve incubating the primase domain with an oligonucleotide containing a primase recognition sequence. […] After incubation, the radioactive products were analyzed by electrophoresis through 25% polyacrylamide gel containing 3 M urea and visualized using autoradiography.
SMILES,pIC50 [2],chemical shift perturbations of T7 primase upon compound addition (T7 DNA primase [3]),decrease of primase dependent DNA synthesis [4],further results
NC(=S)C1=Cc2ccccc2OC1 [2H-chromene-3-carbothioamide],–,–,–,binding to T7 primase by STD spectroscopy (decrease in NMR peak intensities) (T7 DNA primase [1]): strongest binding
"O=C1Cc2c([nH]c3ccc([N+](=O)[O-])cc23)-c2ccccc2N1 [Compound 12, 9-Nitro-7,12-dihydroindolo-[3,2-d][1]benzazepin-6(5)-one]",3.96,–,–,–
"O=C(Nc1ccc2c(c1)OCO2)c1cc2cccc([N+](=O)[O-])c2[nH]1 [Compound 15, N-(1,3-benzodioxol-5-yl)-7-nitro-1H-indole-2-carboxamide]",4.25,–,–,–
"O=C(O)c1cc2cccc([N+](=O)[O-])c2[nH]1 [Compound 17, 7-nitro-1H-indole-2-carboxylic acid]",3.50,–,–,–
"O=C(O)/C=C/C1=Cc2cc(Cl)ccc2OC1 [compound 1, (2E)-3-(6-chloro-2H-chromen-3-yl)acrylic acid]",–,significant chemical shift perturbations,decreases by up to four-fold,–
"O=C1Cc2c([nH]c3ccc([N+](=O)[O-])cc23)-c2ccccc2N1 [compound 12, 9-Nitro-7,12-dihydroindolo-[3,2-d][1]benzazepin-6(5)-one]",–,–,decreases by up to four-fold,polar dissolution values [5]: lowest; Hill coefficient (T7 primase domain): highest value
"CCOC(=O)c1[nH]c2ccc([N+](=O)[O-])cc2c1CCC(=O)O [compound 13, 3-[2-(ethoxycarbonyl)-5-nitro-1H-indol-3-yl]propanoic acid]",–,significant chemical shift perturbations,decreases by up to four-fold,–
"O=C(Nc1ccc2c(c1)OCO2)c1cc2cccc([N+](=O)[O-])c2[nH]1 [compound 15, N-(1,3-benzodioxol-5-yl)-7-nitro-1H-indole-2-carboxamide]",–,–,decreases by up to four-fold,polar dissolution values [5]: lowest
"O=C(O)c1cc2cccc([N+](=O)[O-])c2[nH]1 [compound 17, 7-nitro-1H-indole-2-carboxylic acid]",–,significant chemical shift perturbations,decreases by up to four-fold,–
c1ccc2[nH]ccc2c1 [indole],–,–,–,binding to T7 primase by STD spectroscopy (decrease in NMR peak intensities) (T7 DNA primase [1]): strongest binding
